In US4065619A, “7-(α-Sulfoacylamido)cephalosporins” (Takeda Chemical Industries, Ltd., priority 1971, dated 1977):
Converted amounts (≈) assume the structure as drawn. Values belong to the compound of their own block, whether it stands above or below them.

What was measured:
Type in all cases: cell-based
[1] = test system: Pseudomonas aeruginosa (Pd 12); assay: Minimum inhibitory concentration, Pseudomonas aeruginosa (Pd 12)
[2] = test system: Pseudomonas aeruginosa (NCTC); assay: Minimum inhibitory concentration, Pseudomonas aeruginosa (NCTC)
[3] = test system: Pseudomonas aeruginosa (Pd 1); assay: Minimum inhibitory concentration, Pseudomonas aeruginosa (Pd 1)
[4] = test system: Pseudomonas aeruginosa (NCTC 10490); assay: Minimum inhibitory concentration, Pseudomonas aeruginosa (NCTC 10490); conditions: NCTC10490
Pseudomonas aeruginosa = assay: Minimum inhibitory concentration, Pseudomonas aeruginosa (strain not given)
[5] = test system: Staphylococcus aureus (209P); assay: Minimum inhibitory concentration, Staphylococcus aureus 209P
[6] = test system: Pseudomonas aeruginosa (10490); assay: Minimum inhibitory concentration, Pseudomonas aeruginosa (10490)
[7] = test system: Staphylococcus aureus (No. 87, penicillin G resistant); assay: Minimum inhibitory concentration, Staphylococcus aureus (No. 87, penicillin G resistant)
[8] = test system: Staphylococcus aureus (penicillin G resistant); assay: Minimum inhibitory concentration, Staphylococcus aureus (penicillin G resistant)
[9] = test system: Pseudomonas aeruginosa (Pd 13); assay: Minimum inhibitory concentration, Pseudomonas aeruginosa (Pd 13)
[10] = test system: Pseudomonas aeruginosa (T-3); assay: Minimum inhibitory concentration, Pseudomonas aeruginosa (T-3)

MIC [1]: 5 µg/mL (≈ 9.27 µM)
Structure (SMILES): O=C([O-])C1=C(C[n+]2cccc3ccccc32)CS[C@@H]2[C@H](NC(=O)C(c3ccccc3)S(=O)(=O)O)C(=O)N12 (some centres unmarked)

MIC [1]: 0.5 µg/mL (≈ 0.939 µM)
Structure (SMILES): NC(=O)c1cc[n+](CC2=C(C(=O)[O-])N3C(=O)[C@@H](NC(=O)C(c4ccccc4)S(=O)(=O)O)[C@H]3SC2)cc1 (some centres unmarked) [drawing 13]

MIC [1]: 1 µg/mL (≈ 1.88 µM)
Structure (SMILES): NC(=O)c1ccc[n+](CC2=C(C(=O)[O-])N3C(=O)[C@@H](NC(=O)C(c4ccccc4)S(=O)(=O)O)[C@H]3SC2)c1 (some centres unmarked)

MIC [2]: 0.5 µg/mL
MIC [3]: 1 µg/mL
Structure (SMILES): NC(=O)c1cc[n+](CC2=C(C(=O)[O-])N3C(=O)[C@@H](NC(=O)C(c4ccccc4)S(=O)(=O)O)[C@H]3SC2)cc1 (stereo partly drawn) [Example 3, sodium N-[7-(α-sulfophenylacetamido)ceph-3-em-3-ylmethyl]-4'-carbamoyl-pyridinium-4-carboxylate]

MIC [1]: 5 µg/mL (≈ 9.27 µM)
Structure (SMILES): O=C([O-])C1=C(C[n+]2ccc3ccccc3c2)CS[C@@H]2[C@H](NC(=O)C(c3ccccc3)S(=O)(=O)O)C(=O)N12 (some centres unmarked)

MIC [4]: 2 µg/mL
MIC [3]: 3 µg/mL
Structure (SMILES): Cc1cccc[n+]1CC1=C(C(=O)[O-])N2C(=O)[C@@H](NC(=O)C(c3ccccc3)S(=O)(=O)O)[C@H]2SC1 (stereo partly drawn) [Example 5, sodium N-[7-(α-sulfophenylacetamido)-ceph-3-em-3-ylmethyl]-2'-methylpyridinium-4-carboxylate]

MIC (Pseudomonas aeruginosa): 5 µg/mL
MIC [5]: 5 µg/mL
Structure (SMILES): Nc1ccc(C(C(=O)NC2C(=O)N3C(C(=O)[O-])=C(C[n+]4ccccc4)CSC23)S(=O)(=O)O)cc1 (stereo not drawn) [Example 9, sodium 7-[α-sulfo-α-(p-aminophenyl)acctamido]-3-(pyridiniummethyl)ceph-3-em-4-carboxylate]

MIC [6]: 2 µg/mL (≈ 4.26 µM)
MIC [7]: 2 µg/mL (≈ 4.26 µM)
Structure (SMILES): CCCCC(C(=O)NC1C(=O)N2C(C(=O)[O-])=C(C[n+]3ccccc3)CSC12)S(=O)(=O)O (centres unmarked) [Example 7]

MIC [1]: 10 µg/mL (≈ 20.4 µM)
MIC [4]: 1 µg/mL (≈ 2.04 µM)
MIC [8]: 2 µg/mL (≈ 4.09 µM)
MIC [9]: 5 µg/mL (≈ 10.2 µM)
MIC [5]: 1 µg/mL (≈ 2.04 µM)
MIC [3]: 2 µg/mL (≈ 4.09 µM)
MIC [10]: 5 µg/mL (≈ 10.2 µM)
Structure (SMILES): O=C([O-])C1=C(C[n+]2ccccc2)CS[C@@H]2[C@H](NC(=O)C(c3ccccc3)S(=O)(=O)O)C(=O)N12 (some centres unmarked) [Example 1]

MIC [4]: 1 µg/mL (≈ 2.02 µM)
MIC [3]: 2 µg/mL (≈ 4.04 µM)
Structure (SMILES): O=C([O-])C1=C(C[n+]2ccccc2)CS[C@@H]2[C@H](NC(=O)C(c3ccsc3)S(=O)(=O)O)C(=O)N12 (some centres unmarked) [Example 13]

MIC [1]: 5 µg/mL (≈ 9.37 µM)
Structure (SMILES): O=C([O-])C1=C(C[n+]2cccc(C(=O)O)c2)CS[C@@H]2[C@H](NC(=O)C(c3ccccc3)S(=O)(=O)O)C(=O)N12 (some centres unmarked)

MIC [1]: 10 µg/mL (≈ 18.3 µM)
Structure (SMILES): NNC(=O)c1cc[n+](CC2=C(C(=O)[O-])N3C(=O)[C@@H](NC(=O)C(c4ccccc4)S(=O)(=O)O)[C@H]3SC2)cc1 (some centres unmarked)
